From article PMC9675976, “Selfish uptake versus extracellular arabinoxylan degradation in the primary degrader Ruminiclostridium cellulolyticum, a new string to its bow” (Biotechnology for Biofuels and Bioproducts, 2022)
Entries after “also recorded” stand apart in the source; their conditions may differ. Like-named read-outs stand apart in the source and are kept apart here.

What was measured:
XuaA [1] = target: T1, XuaA (Ruminiclostridium cellulolyticum, UniProt B8I0N3); assay: Thermal shift assay (TSA) of XuaA with carbohydrate ligands; type: binding; conditions: for Binding to XuaA (in words): screened by TSA, then ITC
Protocol: (§1) XOS and AXOS were purchased from Megazyme: A^3X (ref O-A^3X), A^2XX (ref O-A^2XX), A^2,3XX (ref O-A^2,3XX), XA^3XX (ref O-XA^3XX), XA^2,3XX (ref O-XA^2,3XX), XAXXMIX (ref O-XAXXMIX), X2 to X6 (ref O-XBI, O-XTR, O-XTE, O-XPE, O-XHE, respectively) (Fig. 3) (Megazyme). For TSA experiments, monosaccharides, XOS and AXOS were tested at a final concentration of 1 mM or 0.1 mM (for X4, X5, and X6). Experiments were performed with XuaA (8 µM) in 25 mM phosphate buffer pH 7 and SYPRO orange (1/500) (Sigma-Aldrich). Melting curves were monitored from 10 to 90 °C with 0.5 °C increment every 30 s, on CFX96 touch real-time PCR detection system (Bio-Rad, France) and analyzed using the Bio-Rad CFX Maestro 1.1 software.

XuaA [2] = target: T1, XuaA; assay: Isothermal titration calorimetry (ITC) of XuaA with ligands; type: binding; conditions: 25 °C, 25 mM phosphate buffer pH 7.0
Protocol: as §1
A MicroCal PEAQ-ITC (Malvern, Malvern, UK) was used to determine thermodynamic parameters of the binding at 25 °C in 25 mM phosphate buffer, pH 7.0. The ligands (50–2000 µM) were injected (one injection with 0.4 µL followed by 18 injections of 2 µL) in the cell containing XuaA (5–50 µM) in the same buffer. At least one duplicate was performed.

XuaD = XuaD (Ruminiclostridium cellulolyticum, UniProt B8I0N6); assay: Enzyme activity of XuaD on AXOS (HPAEC-PAD); type: biochemical; conditions: for Products released by XuaD: HPAEC-PAD; for Specific activity (IU) of XuaD: substrate 1 mM, 37 °C
Protocol: (§2) XuaD, E, F, G (0.01 to 1 µM) were tested with different AXOS and/or XOS at 1 mM with incubation times varying from 5 min to 24 h. Enzymes (10 nM) were incubated at 37 °C for 5 min, kinetic parameters of XuaD were determined with both A^2,3XX and A^2XX, with sugar concentration varying from 0.05 to 8 mM, and XuaE with A^2,3XX with sugar concentration varying from 0.05 to 1 mM (at least 9 concentration point). Substrates and released products were quantified by high performance anion exchange chromatography coupled with pulsed amperometric detection on an ICS-3000 using a PA1 column (Thermo Scientific). Sugars were eluted with the buffers 0.1 M NaOH and 0.5 M sodium acetate + 0.1 M NaOH as the eluants A and B, respectively, using the multistep procedure as follows: isochratic separation (5 min, 95% A + 5% B), separation gradient (8 min, 10–37% B), column wash (2 min, 99% B), and subsequent column equilibration (2.5 min, 95% A + 5% B).

XuaE = XuaE (Ruminiclostridium cellulolyticum, UniProt B8I0N8); assay: Enzyme activity of XuaE on AXOS (HPAEC-PAD); type: biochemical; conditions: for Products released by XuaE: HPAEC-PAD; for Specific activity (IU) of XuaE: substrate 1 mM, 37 °C
Protocol: as §2

XuaG = assay: Enzyme activity of XuaG on AXOS and XOS (HPAEC-PAD); type: biochemical, Ruminiclostridium cellulolyticum; conditions: substrate 1 mM, 37 °C
Protocol: as §2

XuaF = assay: Enzyme activity of XuaF on AXOS and XOS (HPAEC-PAD); type: biochemical, Ruminiclostridium cellulolyticum; conditions: substrate 1 mM, 37 °C
Protocol: as §2

[3] = substrate: OC[C@@H]1O[C@@H](O[C@@H]2[C@@H](O[C@@H]3O[C@@H](CO)[C@H](O)[C@H]3O)[C@H](O[C@@H]3CO[C@@H](O[C@@H]4COC(O)[C@H](O)[C@H]4O)[C@H](O)[C@H]3O)OC[C@H]2O)[C@H](O)[C@H]1O; assay: Enzyme activity of XuaE on AXOS (HPAEC-PAD); type: biochemical, Ruminiclostridium cellulolyticum; conditions: other: 37 °C, substrate 0.05 to 1 mM
Protocol: as §2

[4] = substrate: CC(=O)Oc1cccc2ccccc12; assay: Esterase activity of XuaH; type: biochemical, Ruminiclostridium cellulolyticum; conditions: other: 37 °C, pH 7, substrate 110 µM to 5.36 mM
Protocol: Esterase activity was tested using 1-Naphthyl acetate. Release of 1-Naphthol was monitored at 320 nm during 5 min at 37 °C in 25 mM phosphate buffer pH 7, with substrate final concentration ranging from 110 µM and 5.36 mM, and with XuaH (0.1 µM) or XuaJ (0.01 µM). Concentration of released 1-Naphthol during the first minute of the assay was determined based on 1-Naphthol standard curve.

[5] = XuaA 8 µM, ligand 1 mM or 0.1 mM (X4, X5, X6), 25 mM phosphate buffer pH 7, mean of at least 2 experiments
[6] = XuaE versus XuaD on the same substrate

T1 sequence (B8I0N3 entry or part of it): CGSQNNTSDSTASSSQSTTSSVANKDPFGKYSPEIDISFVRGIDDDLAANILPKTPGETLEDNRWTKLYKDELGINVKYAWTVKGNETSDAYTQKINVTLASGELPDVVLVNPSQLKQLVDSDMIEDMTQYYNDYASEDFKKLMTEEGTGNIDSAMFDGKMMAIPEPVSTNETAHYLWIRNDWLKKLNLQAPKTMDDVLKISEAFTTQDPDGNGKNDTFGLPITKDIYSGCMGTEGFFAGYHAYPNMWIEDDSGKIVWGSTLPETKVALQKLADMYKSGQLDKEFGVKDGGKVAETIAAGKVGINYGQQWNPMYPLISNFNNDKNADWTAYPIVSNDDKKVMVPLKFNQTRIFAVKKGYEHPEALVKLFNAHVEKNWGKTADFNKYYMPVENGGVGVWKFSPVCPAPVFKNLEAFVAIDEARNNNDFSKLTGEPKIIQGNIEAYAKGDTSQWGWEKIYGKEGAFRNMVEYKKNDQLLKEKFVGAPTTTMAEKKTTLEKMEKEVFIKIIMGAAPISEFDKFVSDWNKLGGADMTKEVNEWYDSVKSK
Sequence of XuaD (B8I0N6 entry or part of it): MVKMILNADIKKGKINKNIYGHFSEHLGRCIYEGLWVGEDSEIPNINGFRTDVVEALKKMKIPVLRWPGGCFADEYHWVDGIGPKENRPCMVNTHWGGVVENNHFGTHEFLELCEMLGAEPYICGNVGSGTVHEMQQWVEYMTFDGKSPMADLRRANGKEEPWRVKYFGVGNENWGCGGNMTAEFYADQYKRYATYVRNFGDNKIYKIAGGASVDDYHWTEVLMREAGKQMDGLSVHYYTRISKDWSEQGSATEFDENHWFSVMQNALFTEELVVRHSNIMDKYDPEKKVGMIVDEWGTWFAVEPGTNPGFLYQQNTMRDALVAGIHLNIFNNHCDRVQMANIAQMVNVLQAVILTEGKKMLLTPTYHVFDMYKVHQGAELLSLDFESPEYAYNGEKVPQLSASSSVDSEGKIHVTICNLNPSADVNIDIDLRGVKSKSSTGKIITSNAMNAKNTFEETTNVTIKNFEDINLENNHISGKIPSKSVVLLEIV

Molecule | TSA ∆T (XuaA [1]; [5]) [°C] | Products released by XuaD (XuaD) | Specific activity (IU) of XuaD (XuaD) | Specific activity (IU) of XuaG (XuaG) | Specific activity (IU) of XuaF (XuaF) | also measured
OC[C@@H]1O[C@@H](O[C@@H]2[C@@H](O[C@@H]3O[C@@H](CO)[C@H](O)[C@H]3O)[C@H](O[C@@H]3CO[C@@H](O[C@@H]4COC(O)[C@H](O)[C@H]4O)[C@H](O)[C@H]3O)OC[C@H]2O)[C@H](O)[C@H]1O (stereo partly shown) [A^2,3XX] | 13.5 | Products: Ara, X3 | IU: 1256.3 ± 50.2 IU/µmol of enzyme | blocks the activity | – | ITC -T∆S (XuaA [2]): 15.1 ± 2.8 kcal/mol; ITC N (sites) (XuaA [2]): 0.796 ± 2.37e-2 sites; Kd (XuaA [2]): 12 ± 4.6 nM; Products released by XuaE (XuaE): Products: Ara, A^2XX, A^3XX?; Km of XuaE relative to XuaD (fold lower) (XuaE; [6]): 18 fold; kcat of XuaE relative to XuaD (XuaE; [6]): twofold lower; Specific activity (IU) of XuaE (XuaE): IU: 1938.0 ± 109.6 IU/µmol of enzyme
OC[C@@H]1O[C@@H](O[C@H]2[C@H](O[C@@H]3CO[C@@H](O[C@@H]4COC(O)[C@H](O)[C@H]4O)[C@H](O)[C@H]3O)OC[C@@H](O)[C@@H]2O)[C@H](O)[C@H]1O (stereo partly shown) [A^2XX] | 6.5 | Products: Ara, X3 | IU: 1263.0 ± 46.1 IU/µmol of enzyme | blocks the activity | IU: 202.3 ± 18.7 IU/µmol of enzyme | –
OC[C@H]1OC(O)[C@H](O)[C@@H](O)[C@@H]1O (stereo partly shown) [G, glucose] | – | – | – | – | – | ΔTm at 1000 µM (XuaA [1]; pH 7, read-out: TSA ∆T): 0 °C; Binding to XuaA (in words) (XuaA [1]): does not bind
O=C[C@H](O)[C@@H](O)[C@H](O)CO [X, xylose] | – | – | – | – | – | ΔTm at 1000 µM (XuaA [1]; pH 7, ligand 1 mM, Additional file 1, read-out: TSA ∆T): 0 °C; Binding to XuaA (in words) (XuaA [1]): does not bind; also recorded: failed to bind
OC[C@@H]1O[C@@H](O[C@@H]2[C@@H](O[C@@H]3O[C@@H](CO)[C@H](O)[C@H]3O)[C@H](O[C@@H]3CO[C@@H](O[C@@H]4COC(O)[C@H](O)[C@H]4O)[C@H](O)[C@H]3O)OC[C@H]2O[C@@H]2OC[C@@H](O)[C@H](O)[C@H]2O)[C@H](O)[C@H]1O (stereo partly shown) [XA^2,3XX] | 14 | Products: Ara, X4 | IU: 1.5 ± 0.03 IU/µmol of enzyme | IU: 20.3 ± 0.2 IU/µmol of enzyme | IU: 29.7 ± 2.8 IU/µmol of enzyme | ITC -T∆S (XuaA [2]): 4.8 ± 0.5 kcal/mol; ITC N (sites) (XuaA [2]): 1.05 ± 5.67e-2 sites; Kd (XuaA [2]): 15.9 ± 0.1 nM; Products released by XuaE (XuaE): Products: Ara, XA^2XX, XA^3XX; Specific activity (IU) of XuaE (XuaE): IU: 1927.2 ± 100.4 IU/µmol of enzyme
OC[C@@H]1O[C@@H](O[C@@H]2[C@@H](O)[C@H](O[C@@H]3CO[C@@H](O[C@@H]4COC(O)[C@H](O)[C@H]4O)[C@H](O)[C@H]3O)OC[C@H]2O[C@@H]2OC[C@@H](O)[C@H](O)[C@H]2O)[C@H](O)[C@H]1O (stereo partly shown) [XA^3XX] | 11.0 | Products: Ara, X4 | IU: 1218.9 ± 38.5 IU/µmol of enzyme | IU: 21.2 ± 0.2 IU/µmol of enzyme | IU: 166.7 ± 12.8 IU/µmol of enzyme | ITC -T∆S (XuaA [2]): 11.6 ± 1.2 kcal/mol; ITC N (sites) (XuaA [2]): 0.652 ± 2.83e-3 sites; Kd (XuaA [2]): 40.4 ± 9.3 nM; Products released by XuaE (XuaE): Products: Ara, X4
XuaE (Ruminiclostridium cellulolyticum H10) (protein) MKIQNPIIWADMPDPDIIRVGDIYYMVSTTMFVMPGAPILKSKDLYHWELVSYVFNTIEDNDIYQLKNGKTAYGKGQWATSLRFFNGLYYACFVCHDMQKTYIYYTDDIEKSGWERYVINNVFHDMSFLFDNNRSYLIYGNGDIKIVELKDDLSGIKDGGVNQLLFSTPSENIMLRCEGCRAYKINGYYYLLFIEWPNDGNSRRRVVCYRSKDLLGEYDRKILLDDDMEYQNQGIAQGAIIDTPEGEWYSILFQDHGAVGRIPYLLPVSWEDDWPNLGVNEKVPESFEIPFEAYDTKPLIVSDSFNHNENKLDLRWQWNHNPEEDCWSFTEHPGYLRLRTQSLATDILTARNTLTQRTSGPQCAFSVELKTEGMKAGDYAGLVALQGNYGAIGIRADENNLKRIIVSKKGSDGRQIEEEYRLFADSRILIKIEFDFRNSSDIAKFYYSQDGIGWIKLGSDLHMTYTLDLFIGYRIGIFYYSQKAAGGFADFRNFSYESRQ | – | – | – | – | – | Km [3]: Km 0.1 ± 0.003 mM; kcat [3]: kcat 2253.5 ± 142.1 min^−1; kcat/Km [3]: kcat/Km 23137.8 ± 1355.0 min^−1 mM^−1
XuaH (Ruminiclostridium cellulolyticum H10) (protein) MAIFQANFFAKTMKRSICFNALIPNDKYQAPDQEIKDEPKGPMKSIYLLHGYSGNHTDWLTWTKIQELSLKYNIAVFMPSGENFFYVDDEEVGAYYGELIGNELVDYTRSTFHLSDKREDTFIGGLSMGGYGAIRNGLKYSERFGRIIALSSALITNQIAGITPDFKGPVADYPYYRRVFGDLDRLLGGDKDPEALIRSLKEKNADIPKIYMACGTEDFLINENRELHEFLVSEKVEHTYIEDSGVHDWKFWNEYIDKGLAWATE | – | – | – | – | – | Km [4]: Km: 3.5 ± 1.1 mM; kcat [4]: kcat: 5435.7 ± 846.4 min^−1; kcat/Km [4]: kcat/Km: 1628.1 ± 295.7 min^−1 mM^−1

Now from value to molecule, other results behind:

TSA ∆T (XuaA [1]; [5]) [°C] | Products released by XuaD (XuaD) | Specific activity (IU) of XuaD (XuaD) | Specific activity (IU) of XuaG (XuaG) | Specific activity (IU) of XuaF (XuaF) | Molecule | also measured
0 | – | – | – | not active | OC1OC[C@@H](O[C@@H]2OC[C@@H](O)[C@H](O)[C@H]2O)[C@H](O)[C@H]1O (stereo partly shown) [X2, xylobiose] | –
0 | – | – | IU: 24.5 ± 1.6 IU/µmol of enzyme | IU: 158.7 ± 21.1 IU/µmol of enzyme | OC1OC[C@@H](O[C@@H]2OC[C@@H](O[C@@H]3OC[C@@H](O)[C@H](O)[C@H]3O)[C@H](O)[C@H]2O)[C@H](O)[C@H]1O (stereo partly shown) [X3, xylotriose] | –
0 | – | – | IU: 23.3 ± 0.5 IU/µmol of enzyme | IU: 87.2 ± 7.6 IU/µmol of enzyme | OC1OC[C@@H](O[C@@H]2OC[C@@H](O[C@@H]3OC[C@@H](O[C@@H]4OC[C@@H](O)[C@H](O)[C@H]4O)[C@H](O)[C@H]3O)[C@H](O)[C@H]2O)[C@H](O)[C@H]1O (stereo partly shown) [X4] | –
– | – | – | IU: 6.2 ± 0.5 IU/µmol of enzyme | IU: 25.3 ± 0.7 IU/µmol of enzyme | OC1OC[C@@H](O[C@@H]2OC[C@@H](O[C@@H]3OC[C@@H](O[C@@H]4OC[C@@H](O[C@@H]5OC[C@@H](O)[C@H](O)[C@H]5O)[C@H](O)[C@H]4O)[C@H](O)[C@H]3O)[C@H](O)[C@H]2O)[C@H](O)[C@H]1O (stereo partly shown) [X5] | ΔTm at 100 µM (XuaA [1]; pH 7, ligand 100 µM, Additional file 1, read-out: TSA ∆T): 0 °C
0 | – | – | – | – | OC1OC[C@@H](O[C@@H]2OC[C@@H](O[C@@H]3OC[C@@H](O[C@@H]4OC[C@@H](O[C@@H]5OC[C@@H](O[C@@H]6OC[C@@H](O)[C@H](O)[C@H]6O)[C@H](O)[C@H]5O)[C@H](O)[C@H]4O)[C@H](O)[C@H]3O)[C@H](O)[C@H]2O)[C@H](O)[C@H]1O (stereo partly shown) [X6, Xylohexaose] | TSA ∆T (XuaA [1]; ligand 100 µM, Additional file 1): 0 °C
